The values below come from BindingDB's records for doi:10.7270/Q2SB4462 (Burnham Center For Chemical Genomics, 2011).

One may read the pIC50 as −log10 of the IC50, conventionally taken in molar units. Lower therefore signals a large IC50.

pIC50: −log10 of the molar value.

The assay addresses T1, Ubiquitin-conjugating enzyme E2 N (Homo sapiens, UniProt P61088).
T1 sequence (P61088 whole entry): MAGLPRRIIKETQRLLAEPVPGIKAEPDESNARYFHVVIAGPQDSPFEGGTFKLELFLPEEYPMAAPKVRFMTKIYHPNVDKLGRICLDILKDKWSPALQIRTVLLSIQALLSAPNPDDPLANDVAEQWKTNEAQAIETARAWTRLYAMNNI
Put plainly: UBC13 polyubiquitination inhibitor potency, dose response, biochemical, TR-FRET, reconfirmation (AID 493182).

`C#CCOCCOCCOCCNc1nc(N2CCN(C(=O)CCCCCCCCCCNC(=O)[C@H](CO)n3cc(CCCSC)nn3)CC2)nc(N2CCN(C(=O)CCCCCCCCCCNC(=O)[C@H](CCCCN)n3cc(CCO)nn3)CC2)n1` [SMR001318322] showed a pIC50 of 5.24.

Turning to `CCN(CC)CCOC(=O)c1ccc(N=CC(C#N)c2nc(-c3cc4ccccc4oc3=O)cs2)cc1` (stereo not drawn) [2-(diethylamino)ethyl 4-[[(Z)-2-cyano-2-[4-(2-oxochromen-3-yl)-1,3-thiazol-2-yl]ethenyl]amino]benzoate], the pIC50 was 5.46. Against the preceding compound, the pIC50 is 0.22 log units higher.

As to `C#CCOCCOCCOCCNc1nc(N2CCN(C(=O)CCCCCCCCCCNC(=O)[C@@H](CCSC)n3cc(CCO)nn3)CC2)nc(N2CCN(C(=O)CCCCCCCCCCNC(=O)[C@H](CCC(=O)O)n3cc(CCCCCN)nn3)CC2)n1` [MLS002153730], the pIC50 is 4.80. This pIC50 is 0.66 log units lower than that of the compound before.

As for `C#CCOCCOCCOCCNc1nc(N2CCN(C(=O)[C@H](CCCCN)n3cc([C@@H](N)C(C)CC)nn3)CC2)nc(N2CCN(C(=O)[C@H](Cc3ccc(O)cc3)n3cc([C@@H](N)C(C)CC)nn3)CC2)n1` (stereo partly drawn) [SMR000391090], the pIC50 was 4.99.

In the case of `CCOC(=O)C1C(COC(=O)c2ncc(Cl)c(Cl)c2Cl)=NC(=O)NC1C` (stereo not drawn), the pIC50 is 5.03.

Compound `COCCNC(=S)NN=C1C(=O)Nc2ccc([N+](=O)[O-])cc21` [1-(2-methoxyethyl)-3-[(5-nitro-2-oxoindol-3-yl)amino]thiourea] showed a negative logarithm of the IC50 (pIC50) of 5.82.

`CC(C)NC(=S)NNC1=c2cc(C(C)C)ccc2=NC1=O` [SMR000242097]: the pIC50 was 5.45.

Regarding `Cc1cccc(NC(=S)NNC2=c3ccccc3=NC2=O)c1`, the pIC50 was 6.23.

In turn, `CCN(CC)CCOC(=O)c1ccc(N=CC(C#N)c2nc(-c3ccc4c(c3)OCO4)cs2)cc1` (stereo not drawn) [2-(diethylamino)ethyl 4-[[(Z)-2-[4-(1,3-benzodioxol-5-yl)-1,3-thiazol-2-yl]-2-cyano-ethenyl]amino]benzoate] showed a pIC50 of 5.29.

`C#CCOCCOCCOCCNc1nc(N2CCN(C(=O)[C@H](CCCN=C(N)N)n3cc(C(N)[C@H](C)CC)nn3)CC2)nc(N2CCN(C(=O)[C@H](CCCN=C(N)N)n3cc(C(N)[C@@H](C)CC)nn3)CC2)n1` (stereo partly drawn) [MLS002473475]: the pIC50 was 4.71. This pIC50 is 0.58 log units lower than that of the compound before.

In turn, `CCOC(=O)C1C(COC(=O)c2cc(OC)c(OC)c(OC)c2)=NC(=O)NC1C` (stereo not drawn) [MLS001161811] showed a pIC50 of 5.07.

With `Cc1cc(C)c2c(c1)=C(NNC(=S)NCC1CCCO1)C(=O)N=2` (stereo not drawn), the pIC50 is 6.29. Against the preceding compound, the pIC50 is 1.22 log units higher.

The compound `C#CCOCCOCCOCCNc1nc(N2CCN(C(=O)CCCCCCCCCCNC(=O)[C@H](CCCCN)n3cc(CCO)nn3)CC2)nc(N2CCN(C(=O)CCCCCCCCCCNC(=O)[C@H](CCCCN)n3cc(CCCC(=O)O)nn3)CC2)n1` [MLS002153608] showed a negative-log IC50 (pIC50) of 4.98.

Consider `C#CCOCCOCCOCCNc1nc(N2CCN(C(=O)CCCCCCCCCCNC(=O)Cn3cc(CCCCCN)nn3)CC2)nc(N2CCN(C(=O)CCCCCCCCCCNC(=O)Cn3cc(CCCCCN)nn3)CC2)n1` [SMR001231146], for which the negative-log IC50 (pIC50) was 5.47.

Take `C#CCOCCOCCOCCNc1nc(N2CCN(C(=O)CCCCCCCCCCNC(=O)[C@@H](CCC(=O)O)n3cc(CCCCCN)nn3)CC2)nc(N2CCN(C(=O)CCCCCCCCCCNC(=O)[C@H]([C@@H](C)CC)n3cc(CCCCCN)nn3)CC2)n1` [KI-KE]: the pIC50 was 5.18.

Take `C#CCOCCOCCOCCNc1nc(N2CCN(C(=O)CCCCCCCCCCNC(=O)Cn3cc(CCCCCN)nn3)CC2)nc(N2CCN(C(=O)CCCCCCCCCCNC(=O)[C@H](CO)n3cc(CCCSC)nn3)CC2)n1` [MLS002153667]: the pIC50 was 5.39.

In turn, `C#CCOCCOCCOCCNc1nc(N2CCN(C(=O)CCCCCCCCCCNC(=O)[C@H]([C@@H](C)CC)n3cc(CCCCN=C(N)N)nn3)CC2)nc(N2CCN(C(=O)CCCCCCCCCCNC(=O)[C@@H]([C@H](C)O)n3cc(C)nn3)CC2)n1` [GT-RI] showed a pIC50 of 5.33.

The compound `C#CCOCCOCCOCCNc1nc(N2CCN(C(=O)[C@H](Cc3cc4ccccc4[nH]3)n3cc([C@@H](N)CC(C)C)nn3)CC2)nc(N2CCN(C(=O)[C@H](Cc3cc4ccccc4[nH]3)n3cc([C@@H](N)CC(C)C)nn3)CC2)n1` [LW-LW] showed a pIC50 of 5.19. This pIC50 and that of the compound before are within 0.2 log units of each other.
